Data as given in US7250397B2, “Antiarrhythmic peptides” (Zealand Pharma A/S, priority 2000, dated 2007).
[ ]: non-standard residue; d: D form. The star is where a group is joined. Hyp = O=C(O)[C@@H]1C[C@@H](O)CN1; dHyp = O=C(O)[C@H]1C[C@H](O)CN1; T4C = not defined here; Acm = CC(=O)NC*; Sar = CNCC(=O)O

What was measured:
[1] = test system: calcium-induced arrythmias; experiment: Calcium-induced arrhythmia model in mice; format: in vivo; settings: maximal effect; i.v.; time until 2nd degree AV-block during CaCl2 infusion relative to vehicle treated mice
Procedure: The antiarrhythmic effects of compounds of this invention were tested in an in vivo model of calcium-induced arrythmias according to the model of Lynch et al.^[37]. […]. Commercial solutions of hypnorm and midazolam were diluted 1:1 in distilled water and one part diluted Hypnorm® is mixed with one part diluted midazolam.
The anaesthesia was induced by s.c. administration in a dose of 0.05-0.075 μl/10 gram mouse. An i.v cannula was inserted into the tail vein. The lead II ECG signal was recorded continuously by positioning of a stainless steel ECG electrodes on the right forelimb and on the left hind limb. The ground electrode was placed on the right hind limb. The signal was amplified (x 5.000-10.000) and filtered (0.1-150 Hz) via a Hugo Sachs Electronic model 689 ECG module. The analogue signal was digitised via a 12 bit data acquisition board (Data Translation model DT321) and sampled at 1000 Hz using the Notocord HEM 3.1 software for Windows NT. After a 10-min equilibration period, the test sample of drug was injected into the tail vein. Mice pre-treated with vehicle were tested as a measure of the control level in untreated animals. The injection volume was 100 μl in all experiments. Infusion of CaCl2 (30 mg/ml, 0.1 ml/min≈100 mg/kg/min (calciumchlorid-2-hydrat, Riedel-de Häen, Germany)) was started 3 min after i.v. administration of drug or vehicle. The time lag to onset of 2nd degree AV-block was determined as the time from the start of CaCl2 infusion until the first arrhythmic event occured. An event of 2nd degree AV-block was defined as intermittent failure of the AV conduction characterised by a P-wave without the concomitant QRS complex.
Responses were expressed relative to the time until 2nd degree AV-block occurred in vehicle treated mice.

[2] = test system: phospho-inositol turnover in neonatal rat cardiomyocytes; experiment: Phosphoinositol turnover in rat primary cardiomyocytes; format: cell-based; settings: for EC50: Rattus norvegicus, Cardiomyocyte
Procedure: Neonatal Wistar rats (1-2 days old) are used. Hank's calcium- and magnesium-free balanced salt solution, buffered with 10 mM HEPES is used for washing during cell separation procedures. The hearts are excised, the ventricles isolated and the tissue cut into small pieces. The myocardial cells are isolated by stepwise enzymatic degradation with collagenase 0.05%, as described by^[35]. After repeated rounds of centrifugation and washing, the precipitated cells are resuspended in culture medium M199 with Earle's salt, 10% NCS, penicillin (75 U/mL), and streptomycin (75 U/mL) and pre-plated in a Petri dish for 90 minutes. The non-adherent cells are collected in the culture medium and plated in multidishes at 2.5*10^5 cells/well. The cultures are kept in a water-saturated CO2-incubator at 37° C. The cardiomyocyte cultures are used for analyses after 6-7 days.
Cardiomyocyte cultures are incubated for 48 hours in culture medium containing […] myo-[2-^3H]inositol to label the inositol phospholipids. On the day of analysis the medium is replaced by a buffer solution containing lithium and incubated at 37° C., as described by Meier et al.^[36]. After at least five minutes this buffer is replaced by the same volume of buffer containing test compound and incubated for exactly 20 minutes. The reaction is stopped by rapid replacement of the buffer by ice cold 4% v/v perchloric acid (PCA) and incubation for at least 20 minutes at 0° C. The PCA-extract is neutralised and the [^3H]inositol phosphates are separated by anion-exchange chromatography using Amprep™ columns containing 100 mg SAX Quaternary amine. The [^3H]inositol mono-phosphates are eluted and radioactivity in the fraction measured by liquid scintillation counting.
Before adding test substances to the cultures, the cells are depleted of glucose and oxygen by incubating them in a N2-atmosphere in glucose-free lithium-buffer for 10 minutes at 37° C. Control cells are incubated likewise only at normal atmospheric conditions and in a buffer containing glucose.

CHO cells = experiment: In situ binding of [125I]AAP10 on intact CHO cells; settings: overnight at 4° C.
Procedure: CHO cells are seeded in 24-multi well dishes in a density of 7,900 cells/cm^2 (˜15,000 cells/well) and grown for 3 Days In Vitro (DIV) in 1 ml/well of F-12K Nutrient Mixture supplemented with […] (FCS) and 1000 units penicillin/1000 μg streptomycin (pen/strep) in an atmosphere of 5% CO2 and 100% humidity at 37° C. The cell density has at that time increased to 295,000 cells/cm^2 (152 pgprot/cell˜85 μgprot/well).
On the day of analysis cells are removed from the incubator and each well is washed twice with, depending on the experiment, either 2 ml pre-warmed (37° C.) or ice-cold (0° C.) D-PBS to remove serum. It is important to keep the period to a minimum during which cells are left without physiological solutions to avoid that they dry out during washing procedures. The cold washed cells are used directly for binding assays while the warm washed cells are used for experiments with glucose and oxygen deprivation.
Cells are incubated for 10 min in an N2-atmosphere in glucose free D-PBS (pH 7.2) pre-equilibrated with N2 for at least 10 min at 37° C. Control cells are incubated likewise for 10 min at 37° C., only, at normal atmospheric conditions and in D-PBS containing glucose (6 mM). […]
0.25 ml of 0.5% Triton-X-100 (v/v) is added to each well and cells left for at least 1 h to solubilize. […] The vials are counted in a γ-counter.

[3] = test system: guinea pig papillary muscle; settings: 1 μM; normoxic conditions; cited from earlier work
[4] = test system: membranes from rabbit heart; settings: read-out: value given for AAP10 by Dhein et al.; cited from earlier work

Row | Compound | In vivo activity [1] | also measured
1 | 3-(4-hydroxyphenyl)propionyl-Pro-Hyp-Gly-Ala-Gly-OH [Compound CE3, reference compound] | ++ (30-50% increase in time until arrhythmia) | –
2 | NC[C@H](O)c1ccc(O)c(O)c1 [Noradrenaline] | – | EC50 ([2]; atmosphere of N2 and depleted of glucose): 303 nM; EC50 ([2]; normal atmospheric and nutritional conditions): 203 nM
3 | ASAL(mono-iodo)-Pro-Hyp-Gly-Ala-Gly-NH2 [Compound 32] | +++ (>60% increase in time until arrhythmia) | IC50 (CHO cells): 0.5 nM
4 | Ac-D-Tyr(3,5-di-I)-D-Pro-D-Hyp-Gly-D-Ala-Gly-NH2 [Compound 24] | – | IC50 (CHO cells): 65 nM
5 | Ac-Gly-Asn-Tyr-NH2 [Compound 40] | ++ (30-50% increase in time until arrhythmia) | –
6 | Ac-Tyr-Pro-4Hyp-Gly-Ala-Gly-OH (Ac-YP[Hyp]GAG-OH; SMILES CC(=O)N[C@@H](Cc1ccc(O)cc1)C(=O)N1CCC[C@H]1C(=O)N1C[C@H](O)C[C@H]1C(=O)NCC(=O)N[C@@H](C)C(=O)NCC(=O)O) [Compound 1] | + (15-29% increase in time until arrhythmia) | –
7 | Cyclo(Tyr-Pro-4Hyp-Gly-Ala-Gly-Asn) [Compound 3] | +++ (>60% increase in time until arrhythmia) | –
8 | H-C(Acm)GAG[Hyp]PYC(Acm)-NH2 [Compound 16] | + (15-29% increase in time until arrhythmia) | –
9 | H-GAG[Hyp]PY-NH2 [Compound CE2] | +++ (>60% increase in time until arrhythmia) | EC50 relative to the EC50 of Compound 2 ([2]; during normoxia): 200 fold; EC50 relative to the EC50 of Compound 2 ([2]; metabolic stress induced by anoxia and glucose deprivation): 10 fold; decrease of stimulus-response-interval [3]: about 10%; IC50 [4]: 0.2 nM
10 | H-GAG[dHyp]AY-NH2 [Compound 9] | + (15-29% increase in time until arrhythmia) | –
11 | H-GAG[dHyp]PY-NH2 [Compound 5] | ++ (30-50% increase in time until arrhythmia) | –
12 | H-GAG[dHyp][dP]Y-NH2 [Compound 10] | +++ (>60% increase in time until arrhythmia) | –
13 | H-GP[Hyp]GAG-OH [Compound CE1, reference compound] | ++ (30-50% increase in time until arrhythmia) | –
14 | H-Gly-Ala-Gly-Asn-Tyr-NH2 (H-GAGNY-NH2) [Compound 39] | +++ (>60% increase in time until arrhythmia) | –
15 | H-Gly-Ala-Gly-PC-Pro-Tyr-NH2 (GAGPY; PC residue; C-terminal amide; Description of Artificial Sequence: Synthetic antiarrythmic peptide; PC between positions 3 and 4) [Compound 14] | + (15-29% increase in time until arrhythmia) | –
16 | H-Gly-Ala-Gly-T4C-Pro-Tyr-NH2 (H-GAG[T4C]PY-NH2; reading uncertain; also: printed as H-Gly-Ala-Gly-T4C-Pro-Tyr-NH2) [Compound 12] | ++ (30-50% increase in time until arrhythmia) | –
17 | H-Gly-Ala-Sar-Hyp-Pro-Tyr-NH2 (H-GA[Sar][Hyp]PY-NH2; SMILES C[C@H](NC(=O)CN)C(=O)N(C)CC(=O)N1C[C@H](O)C[C@H]1C(=O)N1CCC[C@H]1C(=O)N[C@@H](Cc1ccc(O)cc1)C(N)=O) [Compound 30] | ++ (30-50% increase in time until arrhythmia) | –
18 | H-Gly-Asn-Tyr-NH2 [Compound 41] | ++ (30-50% increase in time until arrhythmia) | –
19 | H-Hyp-Pro-Tyr-Asn-Gly-Ala-Gly-NH2 (H-[Hyp]PYNGAG-NH2; SMILES C[C@H](NC(=O)CNC(=O)[C@H](CC(N)=O)NC(=O)[C@H](Cc1ccc(O)cc1)NC(=O)[C@@H]1CCCN1C(=O)[C@@H]1C[C@@H](O)CN1)C(=O)NCC(N)=O) [Compound 28] | (+) (≦15% increase in time until arrythmia) | –
20 | H-[Sar]A[Sar][Hyp]PY-NH2 [Compound 29] | + (15-29% increase in time until arrhythmia) | –
21 | cyclo(-Gly-Ala-Gly-Hyp-Pro-Tyr-Asn-) (cyclo(GAG[Hyp]PYN)) [Compound 36] | +++ (>60% increase in time until arrhythmia) | –
22 | cyclo(-Gly-Ala-Gly-Hyp-Pro-Tyr-Gln-) (cyclo(GAG[Hyp]PYQ); SMILES C[C@@H]1NC(=O)CNC(=O)[C@H](CCC(N)=O)NC(=O)[C@H](Cc2ccc(O)cc2)NC(=O)[C@@H]2CCCN2C(=O)[C@@H]2C[C@@H](O)CN2C(=O)CNC1=O) [Compound 35] | ++ (30-50% increase in time until arrhythmia) | –
